1 compound from paper PMC7044277 (Nature Communications, 2020) can be followed below.

Holding throughout (type): cell-based
The target of assay [1] is T1, 320 non-olfactory GPCRs (Homo sapiens, UniProt P33032).
T1 construct: expressed in transfected cells; host or cells: HTLA cells
Conditions: receptor MC5R; replicate values, Fig_4g.

In assay [2] the target is T2, 320 non-olfactory GPCRs (Homo sapiens, UniProt Q9H1Y3).
T2 construct: expressed in transfected cells; host or cells: HTLA cells
Conditions: receptor OPN3; replicate values, Fig_4g.

Assay [3] addresses 320 non-olfactory GPCRs (Homo sapiens, UniProt P61073).
Assay [4] has as its target T3, 320 non-olfactory GPCRs (Homo sapiens, UniProt P43116).
T3 construct: expressed in transfected cells; host or cells: HTLA cells
The conditions noted are these: receptor PTGER2; replicate values, Fig_4g.

Several values for one entry are separate records, joined by “and”; a condition that tells them apart may be missing. Identical values can stand only once.
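For Fold of Basal in this document: compound tested at 1 µM final concentration.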
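For GPCRome agonism screen response in this document: fold over basal response of each receptor without drug.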

T2 sequence (Q9H1Y3 whole entry): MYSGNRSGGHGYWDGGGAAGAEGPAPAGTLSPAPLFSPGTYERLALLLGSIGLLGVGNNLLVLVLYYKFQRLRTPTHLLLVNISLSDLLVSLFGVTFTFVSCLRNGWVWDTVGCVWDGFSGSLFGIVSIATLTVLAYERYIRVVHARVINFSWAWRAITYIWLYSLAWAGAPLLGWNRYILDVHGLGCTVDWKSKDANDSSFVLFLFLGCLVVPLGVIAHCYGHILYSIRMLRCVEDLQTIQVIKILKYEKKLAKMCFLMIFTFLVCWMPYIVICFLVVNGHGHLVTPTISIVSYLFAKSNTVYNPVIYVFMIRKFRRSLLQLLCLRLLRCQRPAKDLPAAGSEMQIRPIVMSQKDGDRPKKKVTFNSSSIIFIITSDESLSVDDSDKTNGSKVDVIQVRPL
T3 sequence (P43116 whole entry): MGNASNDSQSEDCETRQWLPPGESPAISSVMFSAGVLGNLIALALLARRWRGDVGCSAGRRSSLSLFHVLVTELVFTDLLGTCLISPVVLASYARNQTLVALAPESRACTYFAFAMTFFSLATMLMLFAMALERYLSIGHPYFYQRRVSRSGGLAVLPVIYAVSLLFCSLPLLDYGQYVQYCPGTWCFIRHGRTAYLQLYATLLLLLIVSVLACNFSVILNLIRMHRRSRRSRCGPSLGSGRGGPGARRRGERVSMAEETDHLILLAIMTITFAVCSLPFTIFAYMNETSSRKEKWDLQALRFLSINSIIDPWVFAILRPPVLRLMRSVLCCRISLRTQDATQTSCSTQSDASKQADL
320 non-olfactory GPCRs (Homo sapiens, UniProt P61073), sequence (P61073 whole entry): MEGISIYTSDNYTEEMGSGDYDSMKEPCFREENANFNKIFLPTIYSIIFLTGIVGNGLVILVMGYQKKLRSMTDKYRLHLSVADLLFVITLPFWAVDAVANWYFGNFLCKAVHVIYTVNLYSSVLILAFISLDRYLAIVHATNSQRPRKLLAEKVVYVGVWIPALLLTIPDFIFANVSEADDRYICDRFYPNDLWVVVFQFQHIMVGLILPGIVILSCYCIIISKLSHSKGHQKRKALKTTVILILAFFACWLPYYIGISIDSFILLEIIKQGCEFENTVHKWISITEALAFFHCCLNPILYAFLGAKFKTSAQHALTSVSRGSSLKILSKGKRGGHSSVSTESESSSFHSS
T1 sequence (P33032 whole entry): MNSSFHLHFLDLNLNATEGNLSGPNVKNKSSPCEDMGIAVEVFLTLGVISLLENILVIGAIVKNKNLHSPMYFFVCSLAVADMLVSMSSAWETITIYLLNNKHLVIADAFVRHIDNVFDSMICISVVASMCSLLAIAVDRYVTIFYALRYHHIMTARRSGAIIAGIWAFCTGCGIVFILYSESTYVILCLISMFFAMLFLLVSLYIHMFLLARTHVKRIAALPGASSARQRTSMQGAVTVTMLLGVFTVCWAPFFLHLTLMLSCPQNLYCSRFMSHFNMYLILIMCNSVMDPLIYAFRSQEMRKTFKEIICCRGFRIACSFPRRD

For the compound `CCOc1cccc2cc(C(C)NCC3(O)CCCCC3)oc12` (stereo not shown) [O4LE6], the “GPCRome agonism screen response” value on 320 non-olfactory GPCRs [1] is 1.253 and 1.116 and 1.497 and 1.062; on 320 non-olfactory GPCRs [2], 1.462 and 1.944 and 1.753 and 1.142; at 320 non-olfactory GPCRs [4], 0.6203 and 0.7336 and 1.113 and 1.811. At 320 non-olfactory GPCRs [3], the “Fold of Basal” value was 0.9863 and 0.8615 and 0.8471 and 0.9066.
